Laboratory results: article PMC12609579, “Acute Myeloid Leukemia: A Key Role of DGKα and DGKζ in Cell Viability” (Cells, 2025)
pIC50, pKi: −log10 of the molar value.

Tests used:
[1] = tested on: HL-60 cells; design: method as in PMID 37509516; details: cited from earlier work; for effect on viability: HL-60; for pIC50: HL-60, 24 h, read-out: IC50 (cytotoxicity)
[2] = tested on: HEL cells; design: method as in PMID 37509516; details: cited from earlier work; for pIC50: 24 h, read-out: IC50 (cytotoxicity)
[3] = tested on: AML cell lines (HL-60, HEL, THP-1, K562); test: alamarBlue cell viability assay, AML cell line panel (serotonin receptor inhibitors); type: cell-based, human; details: 24 h; for effects on AML cell viability: increasing concentrations
Method: The alamarBlue assay was performed to assess cell viability in presence of chemical inhibitors. A total of 50,000 cells per well were seeded in a 96-wells plate in a volume of 100 μL of complete medium together with 10 μL of 10× concentrated inhibitor solution and then incubated for either 24 or 72 h. Each experimental condition was performed in technical quadruplicates, using cells treated with equal amounts of DMSO vehicle as control and medium alone as background. After incubation, alamarBlue was added to each well at a final concentration of 0.15 mg/mL. The fluorescence of the samples was measured 24 h later using a Spark 10 M Multimode Plate Reader (Tecan, Switzerland) with excitation and emission wavelengths of 535 nm and 590 nm, respectively. For dose–response curve fitting, fluorescence values were normalized according to the following formula:Viability (%) = [(sample mean fluorescence)/(DMSO control mean fluorescence)] ∗ 100 […]
Supplementary figure S3: Effects of serotonin receptor inhibitors on AML cell lines viability.
AML cells were treated with increasing concentration of the indicated inhibitor for 24 hours followed by alamarBlue viability assay for additional 24 hours. Experiments were run in quadruplicates. Data are the mean ± SEM of 4 or more experiments interpolated as [inhibitor] vs. % viability. […]

[4] = target: serotonin 5-HT2A receptor; details: cited from earlier work

In the case of `Cc1ccc2c(C(=O)CN3CCN(C(=O)c4ccco4)CC3)c(C)[nH]c2c1` [AMB639752], the effect on viability [1] is listed as “did not significantly affect viability” and the effect on viability [2] is listed as “did not significantly affect viability”.
For `O=C1/C(=C/C=C/c2ccco2)SC(=S)N1NS(=O)(=O)c1ccccc1` [CU-3], the effect on viability [1] is listed as “did not significantly affect viability” and the effect on viability [2] is listed as “did not significantly affect viability”.
For `Cc1nc2sccn2c(=O)c1CCN1CCC(=C(c2ccccc2)c2ccc(F)cc2)CC1` [R59022], the pIC50 [1] is listed as 4.49 and the pIC50 [2] is listed as 4.31.
For `O=c1c2ccccc2[nH]c(=S)n1CCN1CCC(=C(c2ccc(F)cc2)c2ccc(F)cc2)CC1` [R59949], the pIC50 [1] is listed as 4.14 and the pIC50 [2] is listed as 4.10.
For `O=C(c1ccc(F)cc1)C1CCN(CCn2c(=S)[nH]c3ccccc3c2=O)CC1` [altanserin], the “effects on AML cell viability” value [3] is listed as “negligible effects” and the pKi [4] is listed as 9.89.
With `CCN(CC)CCNC(=O)c1cc(Cl)c(N)cc1OC` [metoclopramide] the “highest reduction in viability” value ([3]; 100 μM) was 11% and the “effects on AML cell viability” value [3] was “negligible effects”.
For `Cc1nc2n(c(=O)c1CCN1CCC(c3noc4cc(F)ccc34)CC1)CCCC2` [risperidone], the “effects on AML cell viability” value [3] was “negligible effects”.
